Results: patent US20230295234A1, “ANTIMICROBIAL PEPTIDOMIMETICS” (SPEXIS AG, priority 2020, published 2023)
Peptide text beside a SMILES is read from it.

Columns and labels:
[1] = tested on: human red blood cells (hRBC); assay: Hemolysis of human red blood cells; assay type: cell-based; details: red cells of human, 1 h
How it was run: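 Percent hemolysis is OD540 of peptide-treated supernatant relative to water-lysed cells. Each peptide was tested at 200 μg/mL against 20% (v/v) washed human erythrocytes. Incubation was 1 h at 37 °C, 300 rpm.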

[2] = tested on: Klebsiella pneumoniae SSI3010; details: SSI3010
How it was run: (§1)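 First, bacterial colonies are suspended in saline and adjusted to 0.5 McFarland. Next, the suspension is diluted into cation-adjusted Mueller-Hinton II broth (approx. 5×10^5 CFU/mL). Finally, it is added to two-fold serially diluted peptide, with polysorbate 80 at 0.002% final.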

[3] = tested on: Escherichia coli ATCC 25922; details: ATCC 25922
How it was run: as §1

[4] = tested on: Escherichia coli MCR-1 Af 45; details: MCR-1 Af 45
How it was run: as §1

SMILES | Klebsiella pneumoniae SSI3010 MIC [2] | Escherichia coli ATCC 25922 MIC [3] | Escherichia coli MCR-1 Af 45 MIC [4] | Hemolysis at 0.2 g/L [1]
CC[C@H](C)[C@H](NC(=O)[C@@H](NC(=O)[C@@H]1CCCN1C(=O)[C@@H](NC(=O)[C@@H]1CCCN1C(=O)[C@H](CCCNC(=N)N)NC(=O)[C@@H](N)CCCCN)C(C)C)[C@@H](C)CC)C(=O)N[C@@H](Cc1ccc(O)cc1)C(=O)N[C@H]1CSSC[C@@H](C(=O)N[C@@H](CCN)C(=O)N[C@@H](CCCNC(=N)N)C(=O)N[C@@H](Cc2ccc(O)cc2)C(=O)O)NC(=O)[C@H](CCCCN)NC(=O)[C@@H](CCN)NC(=O)[C@H]([C@@H](C)O)NC(=O)[C@H](CCN)NC(=O)[C@H](CCCNC(=N)N)NC(=O)[C@H](CC(N)=O)NC1=O [Example 71] (HELM PEPTIDE1{K.R.P.V.P.I.I.Y.C.N.R.[Dab].T.[NCC[C@@H](N[*:1])C(=O)[*:2]].K.C.[Dab].R.Y}$PEPTIDE1,PEPTIDE1,9:R3-16:R3$$$V2.0) | 0.0625 µg/mL | 0.0625 µg/mL | 0.0625 µg/mL | 0%
CCCC[C@H](NC(=O)[C@H](CCCNC(=N)N)NC(=O)[C@H](CCN)NC(=O)[C@@H]1CSSC[C@H](NC(=O)[C@H](Cc2ccc(O)cc2)NC(=O)[C@H](CCCNC(=N)N)NC(=O)[C@@H](NC(=O)[C@@H]2C[C@@H](N)CN2C(=O)[C@@H](NC(=O)[C@@H]2CCCN2C(=O)[C@H](CCCCN)NC(=O)[C@@H](N)CCCCN)C(C)C)[C@@H](C)CC)C(=O)N[C@@H](CC(N)=O)C(=O)N[C@@H](CCCNC(=N)N)C(=O)N[C@@H](CCCNC(=N)N)C(=O)N[C@@H]([C@@H](C)O)C(=O)N[C@H](CCN)C(=O)N[C@@H](CCCCN)C(=O)N1)C(=O)O [Example 74] (HELM PEPTIDE1{K.K.P.V.[N[C@@H]1C[C@@H](C(=O)[*:2])N([*:1])C1].I.R.Y.C.N.R.R.T.[NCC[C@@H](N[*:1])C(=O)[*:2]].K.C.[Dab].R.[Nle]}$PEPTIDE1,PEPTIDE1,9:R3-16:R3$$$V2.0) | 0.0625 µg/mL | 0.03125 µg/mL | 0.0625 µg/mL | 0%
CCCC[C@H](NC(=O)[C@H](CCCNC(=N)N)NC(=O)[C@H](CCN)NC(=O)[C@@H]1CSSC[C@H](NC(=O)[C@H](Cc2ccc(O)cc2)NC(=O)[C@H](CCCNC(=N)N)NC(=O)[C@@H](NC(=O)[C@@H]2CCCN2C(=O)[C@@H](NC(=O)[C@@H]2CCCN2C(=O)[C@H](CCCNC(=N)N)NC(=O)[C@@H](N)CCCCN)C(C)C)[C@@H](C)CC)C(=O)N[C@@H](CC(N)=O)C(=O)N[C@@H](CCCNC(=N)N)C(=O)N[C@@H](CCCNC(=N)N)C(=O)N[C@@H]([C@@H](C)O)C(=O)N[C@H](CCN)C(=O)N[C@@H](CCCCN)C(=O)N1)C(=O)O [Example 75] (HELM PEPTIDE1{K.R.P.V.P.I.R.Y.C.N.R.R.T.[NCC[C@@H](N[*:1])C(=O)[*:2]].K.C.[Dab].R.[Nle]}$PEPTIDE1,PEPTIDE1,9:R3-16:R3$$$V2.0) | 0.0625 µg/mL | ≤0.0625 µg/mL | 0.0625 µg/mL | 0%
CCCC[C@H](NC(=O)[C@H](CCCNC(=N)N)NC(=O)[C@H](CCN)NC(=O)[C@@H]1CSSC[C@H](NC(=O)[C@H](Cc2ccc(O)cc2)NC(=O)[C@@H](NC(=O)[C@@H](NC(=O)[C@@H]2CCCN2C(=O)[C@@H](NC(=O)[C@@H](CCCCN)NC(=O)[C@H](CCCCN)NC(=O)[C@H](N)C(C)C)C(C)C)[C@@H](C)CC)[C@@H](C)CC)C(=O)N[C@@H](CC(N)=O)C(=O)N[C@@H](CCCNC(=N)N)C(=O)N[C@@H](CCCNC(=N)N)C(=O)N[C@@H]([C@@H](C)O)C(=O)N[C@H](CCN)C(=O)N[C@@H](CCCCN)C(=O)N1)C(=O)O [Example 76] (HELM PEPTIDE1{[dV].K.[dK].V.P.I.I.Y.C.N.R.R.T.[NCC[C@@H](N[*:1])C(=O)[*:2]].K.C.[Dab].R.[Nle]}$PEPTIDE1,PEPTIDE1,9:R3-16:R3$$$V2.0) | 0.125 µg/mL | 0.0625 µg/mL | ≤0.03125 µg/mL | 0%
CCCC[C@H](NC(=O)[C@H](CCCNC(=N)N)NC(=O)[C@H](CCN)NC(=O)[C@@H]1CSSC[C@H](NC(=O)[C@H](Cc2ccc(O)cc2)NC(=O)[C@H](Cc2c[nH]cn2)NC(=O)[C@@H](NC(=O)[C@@H]2CCCN2C(=O)[C@@H](NC(=O)[C@@H](CCCCN)NC(=O)[C@H](CCCCN)NC(=O)[C@@H](N)CCCCN)C(C)C)[C@@H](C)CC)C(=O)N[C@@H](CC(N)=O)C(=O)N[C@@H](CCCNC(=N)N)C(=O)N[C@@H](CCCNC(=N)N)C(=O)N[C@@H]([C@@H](C)O)C(=O)N[C@H](CCN)C(=O)N[C@@H](CCCCN)C(=O)N1)C(=O)O [Example 77] (HELM PEPTIDE1{K.K.[dK].V.P.I.H.Y.C.N.R.R.T.[NCC[C@@H](N[*:1])C(=O)[*:2]].K.C.[Dab].R.[Nle]}$PEPTIDE1,PEPTIDE1,9:R3-16:R3$$$V2.0) | 0.25 µg/mL | 0.125 µg/mL | 0.0625 µg/mL | 0%
CC[C@H](C)[C@H](NC(=O)[C@@H](NC(=O)[C@@H]1CCCN1C(=O)[C@@H](NC(=O)[C@@H]1CCCN1C(=O)[C@H](CCCCN)NC(=O)[C@@H](N)CCCCN)C(C)C)[C@@H](C)CC)C(=O)N[C@@H](Cc1ccc(O)cc1)C(=O)N[C@H]1CSSC[C@@H](C(=O)N[C@@H](CCN)C(=O)N[C@@H](CCCNC(=N)N)C(=O)N[C@@H](CC2CC2)C(=O)O)NC(=O)[C@H](CCCCN)NC(=O)[C@@H](CCN)NC(=O)[C@H]([C@@H](C)O)NC(=O)[C@H](CCN)NC(=O)[C@H](CCCNC(=N)N)NC(=O)[C@H](CC(N)=O)NC1=O [Example 79] (HELM PEPTIDE1{K.K.P.V.P.I.I.Y.C.N.R.[Dab].T.[NCC[C@@H](N[*:1])C(=O)[*:2]].K.C.[Dab].R.[O=C(O)[C@H](CC1CC1)N[*:1]]}$PEPTIDE1,PEPTIDE1,9:R3-16:R3$$$V2.0) | 0.125 µg/mL | 0.0625 µg/mL | ≤0.03125 µg/mL | 0%

More lines, main results first:

Klebsiella pneumoniae SSI3010 MIC [2] | Escherichia coli ATCC 25922 MIC [3] | Escherichia coli MCR-1 Af 45 MIC [4] | SMILES | Hemolysis at 0.2 g/L [1]
0.125 µg/mL | 0.0625 µg/mL | 0.125 µg/mL | CCCC[C@H](NC(=O)[C@H](CCCNC(=N)N)NC(=O)[C@H](CCC(N)=O)NC(=O)[C@@H]1CSSC[C@H](NC(=O)[C@H](Cc2ccc(O)cc2)NC(=O)[C@@H](NC(=O)[C@@H](NC(=O)[C@@H]2CCCN2C(=O)[C@@H](NC(=O)[C@@H]2CCCN2C(=O)[C@H](CCCCN)NC(=O)[C@@H](N)CCCCN)C(C)C)[C@@H](C)CC)[C@@H](C)CC)C(=O)N[C@@H](CC(N)=O)C(=O)N[C@@H](CCCNC(=N)N)C(=O)N[C@@H](CCCNC(=N)N)C(=O)N[C@@H]([C@@H](C)O)C(=O)N[C@H](CCN)C(=O)N[C@@H](CCN)C(=O)N1)C(=O)O [Example 69] (HELM PEPTIDE1{K.K.P.V.P.I.I.Y.C.N.R.R.T.[NCC[C@@H](N[*:1])C(=O)[*:2]].[Dab].C.Q.R.[Nle]}$PEPTIDE1,PEPTIDE1,9:R3-16:R3$$$V2.0) | 0%
0.125 µg/mL | 0.03125 µg/mL | 0.0625 µg/mL | CCCC[C@H](NC(=O)[C@H](CCCNC(=N)N)NC(=O)[C@H](CCN)NC(=O)[C@@H]1CSSC[C@H](NC(=O)[C@H](Cc2ccc(O)cc2)NC(=O)[C@@H](NC(=O)[C@@H](NC(=O)[C@@H]2CCCN2C(=O)[C@@H](NC(=O)[C@@H]2CCCN2C(=O)[C@H](CCCCN)NC(=O)[C@H](N)CCCCN)C(C)C)[C@@H](C)CC)[C@@H](C)CC)C(=O)N[C@@H](CC(N)=O)C(=O)N[C@@H](CCCNC(=N)N)C(=O)N[C@@H](CCCNC(=N)N)C(=O)N[C@@H]([C@@H](C)O)C(=O)N[C@H](CCN)C(=O)N[C@@H](CCCCN)C(=O)N1)C(=O)O [Example 70] (HELM PEPTIDE1{[dK].K.P.V.P.I.I.Y.C.N.R.R.T.[NCC[C@@H](N[*:1])C(=O)[*:2]].K.C.[Dab].R.[Nle]}$PEPTIDE1,PEPTIDE1,9:R3-16:R3$$$V2.0) | 0%
≤0.25 µg/mL | ≤0.0625 µg/mL | 0.0625 µg/mL | CCCC[C@H](NC(=O)[C@H](CCCNC(=N)N)NC(=O)[C@H](CCN)NC(=O)[C@@H]1CSSC[C@H](NC(=O)[C@H](Cc2ccc(O)cc2)NC(=O)[C@H](CCCNC(=N)N)NC(=O)[C@@H](NC(=O)[C@@H]2CCCN2C(=O)[C@@H](NC(=O)[C@@H]2CCCN2C(=O)[C@H](CCCNC(=N)N)NC(=O)[C@@H](N)CCCCN)C(C)C)[C@@H](C)CC)C(=O)N[C@@H](CC(N)=O)C(=O)N[C@@H](CCCNC(=N)N)C(=O)N[C@@H](CCN)C(=O)N[C@@H]([C@@H](C)O)C(=O)N[C@H](CCN)C(=O)N[C@@H](CCCCN)C(=O)N1)C(=O)O [Example 72] (HELM PEPTIDE1{K.R.P.V.P.I.R.Y.C.N.R.[Dab].T.[NCC[C@@H](N[*:1])C(=O)[*:2]].K.C.[Dab].R.[Nle]}$PEPTIDE1,PEPTIDE1,9:R3-16:R3$$$V2.0) | 0%
0.125 µg/mL | ≤0.125 µg/mL | 0.0625 µg/mL | CCCC[C@H](NC(=O)[C@H](CCCNC(=N)N)NC(=O)[C@H](CCN)NC(=O)[C@H]1NC(=O)[C@H](CCCCN)NC(=O)[C@@H](CCN)NC(=O)[C@H]([C@@H](C)O)NC(=O)[C@H](CCN)NC(=O)[C@H](CCCNC(=N)N)NC(=O)[C@H](CC(N)=O)NC(=O)[C@@H](NC(=O)[C@H](Cc2ccc(O)cc2)NC(=O)[C@@H](NC(=O)[C@@H](NC(=O)[C@@H]2CCCN2C(=O)[C@@H](NC(=O)[C@@H]2CCCN2C(=O)[C@H](CCCNC(=N)N)NC(=O)[C@@H](N)CCCCN)C(C)C)[C@@H](C)CC)[C@@H](C)CC)CSSC1(C)C)C(=O)O [Example 73] (HELM PEPTIDE1{K.R.P.V.P.I.I.Y.C.N.R.[Dab].T.[NCC[C@@H](N[*:1])C(=O)[*:2]].K.[Pen].[Dab].R.[Nle]}$PEPTIDE1,PEPTIDE1,9:R3-16:R3$$$V2.0) | 0%
